What was measured:
[1] = target: T1, Macrophage migration inhibitory factor (Homo sapiens, UniProt P14174); test: Inhibition of macrophage migration inhibitory factor tautomerase activity in human Jurkat T cells using L-dopachrome methyl ester as substrate incubated for 30 mins prior to substrate addition measured for 2 mins by spectrophotometric analysis; format: cell-based
T1 sequence (P14174 whole entry): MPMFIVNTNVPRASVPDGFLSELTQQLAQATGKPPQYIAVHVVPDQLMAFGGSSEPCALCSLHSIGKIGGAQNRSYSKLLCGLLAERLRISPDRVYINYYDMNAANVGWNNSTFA

[2] = target: T1, Macrophage migration inhibitory factor; test: (§1) Inhibition of human recombinant macrophage migration inhibitory factor tautomerase activity expressed in Escherichia coli DH5alpha using L-dopachrome methyl ester as substrate incubated for 5 mins prior to substrate addition measured for 2 mins by spectrophotometric analysis
[3] = target: T1, Macrophage migration inhibitory factor; test: as §1, with “24 months post determination of initial value” for “for 2 mins”
[4] = target: T1, Macrophage migration inhibitory factor; test: Inhibition of macrophage migration inhibitory factor tautomerase activity in human Jurkat T cells using L-dopachrome methyl ester as substrate incubated for 30 mins prior to substrate addition measured 24 months post determination of initial value by spectrophotometric analysis; format: cell-based

IC50 [1] [µM] | IC50 [3] [µM] | IC50 [4] [µM] | SMILES | IC50 [2] [µM]
7.8 |  |  | Oc1cccc(CCN=C=S)c1 | 62
4 |  |  | Oc1ccc(CCN=C=S)cc1O | 29
7.1 |  |  | FC(F)(F)c1ccc(CCN=C=S)cc1 | 40
10.4 |  |  | FC(F)(F)c1cccc(CCN=C=S)c1 | 
4.8 |  |  | CC(CN=C=S)c1ccc(O)cc1 (stereo unspecified) | 28
> 100 |  |  | Oc1ccc(C(N=C=S)c2ccc(O)cc2)cc1 | 
0.54 | 31 | 9.6 | Fc1ccc(CN=C=S)cc1 | 
1.5 | 54 | 11 | Fc1cccc(CN=C=S)c1 | 
5.9 |  |  | FC(F)(F)c1cccc(CN=C=S)c1 | 
5 |  |  | S=C=NCc1ccc2c(c1)OCO2 | 2.9
21 |  |  | CCC(N=C=S)c1ccccc1 (stereo unspecified) | 
> 100 |  |  | CCC(N=C=S)c1ccc(O)cc1 (stereo unspecified) | 
1.2 |  |  | CCC(N=C=S)c1ccc(OC)cc1 (stereo unspecified) | 
1.8 |  |  | COc1ccccc1OCCN=C=S | 
1.4 |  |  | S=C=NCCCc1ccccc1 | 
3.9 |  |  | COc1ccc(CN=C=S)cc1 | 0.7

SMILES | IC50 [1] [µM] | IC50 [3] [µM] | IC50 [4] [µM] | IC50 [2] [µM]
C[C@@H](N=C=S)c1ccccc1 | 1.1 |  |  | 
Oc1ccc(CCN=C=S)cc1 | 1.2 |  |  | 3.6
S=C=NCCc1ccc(Cl)cc1 | 1.6 |  |  | 1.1
NS(=O)(=O)c1ccc(CN=C=S)cc1 | 0.5 |  |  | 0.75
S=C=NC(c1ccccc1)c1ccccc1 | > 100 |  |  | 
OCCCCCCN=C=S | 5.1 |  |  | 
CC(N=C=S)c1ccccc1 (stereo unspecified) [1-PHENYLETHYL ISOTHIOCYANATE] | 2.8 |  |  | 1
C=CCN=C=S [ALLYL ISOTHIOCYANATE] | 0.25 |  |  | 1.1
N#CSCc1ccccc1 [BENZYL THIOCYANATE] | > 100 |  |  | 
O=C=NCCc1ccccc1 [PHENETHYL ISOCYANATE] | > 100 |  |  | 
S=C=NCCCCc1ccccc1 [PHENYLBUTYL ISOTHIOCYANATE] | 1.9 |  |  | 
S=C=NCCCCCCc1ccccc1 [PHENYLHEXYL ISOTHIOCYANATE] | 4.2 |  |  | 
S=C=Nc1ccccc1 [PHENYLISOTHIOCYANATE] | 11 |  |  | 
C[S+]([O-])CCCCN=C=S (stereo unspecified) [SULFORAPHANE] | 2.2 |  |  | 11
